Source: paper PMC3056768, “Conjugation to the Cell-Penetrating Peptide TAT Potentiates the Photodynamic Effect of Carboxytetramethylrhodamine” (PLoS ONE, 2011)
“Also recorded” adds a separate entry of the source. Read-outs that look alike come from different tables or passages of the source.

Assays:
HeLa cells [1] = assay: Endocytic uptake (fluorescence of endocytic organelles); type: cell-based, human; conditions: 1 h at 37°C, washed, fluorescence imaging (TMR-TAT 3 µM; TMR-K9 higher concentration)
Procedure: (§1) HeLa (human cervical adenocarcinoma), COS-7 (SV40 transformed African green monkey kidney fibroblast-like cell line) were obtained from ATCC. COLO 316 (human ovarian carcinoma) were obtained from Robert Burghardt (Department of Veterinary Integrative Biosciences, Texas A&M University). Cells were cultured in DMEM supplemented with 10% fetal bovine serum (FBS) and maintained at 37°C in a humidified environment with 5% CO2. Cells were plated in 8-well dishes so that the cells were 70% confluent after 24 h, washed 3 times with L-15 media, incubated with 3 to 10 µM peptides at 37°C for 1 h, washed 3 times with L-15, and imaged. Alternatively, cells were incubated in L-15 at 4°C to inhibit the endocytic uptake of peptides. In this case, cells were imaged with the peptide still present in solution and the low temperature was maintained for the entire duration of imaging. For photosensitization, cells were exposed to light (λex = 560±20 nm) for the indicated time points. Plasma membrane disruption was detected by addition of the cell-impermeable DNA stain SYTOX Blue (5 µM) during or after photosensitization.
Supplementary file pone.0017732.s003.tif: Figure S3 Comparison of the fluorescence intensity of endosomes containing TMR-TAT (incubation at 3 µM) or TMR-K9 (incubation at 10 µM) in the images presented in Figure 1. Imaging was performed in both cases under identical conditions. The fluorescence intensities of all endocytic organelles was measured the Slidebook software. […] (TIF) Click here for additional data file.

red blood cells (RBCs) [2] = type: cell-based
Procedure: Supplementary file pone.0017732.s005.tif: Figure S5 A) Photohemolysis of RBCs with TMR-TAT. Short light exposure tat 560 nm to RBCs incubated with TMR-TAT (3 µM) causes lysis and formation of ghost cells as observed by bright field imaging. Lysis of more than 90% of the cells can be achieved when light exposure is increased. Initially, the ghosts formed appear to have a constant diameter as shown in the images corresponding to exposure at 20 J/cm^2 and 60 J/cm^2. As light exposure is increased, the ghosts shrink to a much smaller diameter (120 J/cm^2 image). This shrinkage was not observed when the ghosts formed by irradiation with 60 J/cm^2 of light were incubated without additional light irradiation (data not shown). […] The RBCs were then spun down at low speed and the supernatant was removed from the pelleted cells. Cells were rapidly washed with cold PBS (4°C) and spun down twice. Images are the bright field and TMR confocal fluorescence images before and after washing of the RBCs. During incubation, the interior of RBCs display a dark contrast when compared to the fluorescent peptide present in solution. After washing the cells, no appreciable TMR fluorescence could be detected. It is important to note that RBCs have a weak autofluorescence signal in the TMR channel. […]

red blood cells (RBCs) [3] = system: red blood cells (RBCs)
Procedure: Whole blood was purchased from Gulf Coast Regional Blood Center (Houston, TX). Erythrocytes were centrifuged for 5 min at 1500 g and the erythrocyte pellet was resuspended with PBS. This was repeated three times to remove plasma and buffy coat. The erythrocytes (50% volume in PBS) were diluted in PBS to a final concentration of 0.25%. Indicated concentration of peptide was added to the medium and the samples were added to the wells of an 8-well chamber glass slide (Nunc). Cells were typically allowed to settle to the bottom of the dish for 5 minutes prior to imaging so as to obtain a layer of cells in the focal plane.
Cells were placed on an inverted epifluorescence microscope (Model IX81, Olympus, Center Valley, PA) equipped with a heating stage maintained at 37°C. The microscope is configured with a spinning disk unit to perform both confocal and wide-field fluorescence microscopy. Images were collected using a Rolera-MGI Plus back-illuminated EMCCD camera (Qimaging, Surrey, BC, Canada). Images were acquired using bright field imaging and two standard fluorescence filter sets: Texas Red (Ex = 560±20 nm/Em = 630±35 nm), and CFP (Ex = 436±10 nm/Em = 480±20 nm). The excitation light was from a 100 W halogen lamp (Olympus USH 1030C) passed through the filter cubes and 40 or 100× objective lenses. Neutral density filters (ND 1, 2, 3, or 4 on the instrument, corresponding to 100, 25, 12.5, or 5% transmittance) and different exposure times were used to modulate the amount of light samples were exposed to. The bright field and fluorescence intensities of cells and ghosts were measured using the SlideBook 4.2 software (Olympus, Center Valley, PA). To determine the percentage of cells stained by SYTOX® Blue, cells were imaged with a 20× objective by phase contrast. Ten to twenty images were acquired for each experiment. The total number of cells in a given image was determined from the phase contrast image while the number of dead cells was determined by identifying cells containing a blue fluorescent nucleus stained by SYTOX® Blue. Cell viability was determined by establishing a ratio of dead cells/total number of cells for each sample (at least 1000 cells were counted in each experiments and each experiments were repeated 3 times).
TMR and TMR containing peptides were used at 2 µM. All experiments were performed by irradiating the samples at 560 nm for 400 msec (∼8 J/cm^2). The data in the histogram represents the average of 4 experiments and the error bars correspond to the standard deviation.

HeLa cells [4] = assay: Photocytotoxicity of endocytosed peptide after light irradiation (SYTOX Blue staining, membrane blebbing); type: cell-based
COLO 316 cells = assay: Photocytotoxicity of endocytosed peptide; type: cell-based, human; conditions: COLO 316, 3 µM for 1 h, washed, 560 nm
Procedure: as §1
Figure 2 The photolytic and photocytotoxic effects of TMR-TAT occur rapidly and in all irradiated cells. […] The cells were washed with fresh media and endocytosis of TMR-TAT was confirmed by fluorescence microscopy. […]

CN(C)c1ccc2c(c1)Oc1cc(N(C)C)ccc1C21OC(=O)c2cc(C(=O)NCC(=O)N[C@@H](CCCNC(=N)N)C(=O)N[C@@H](CCCCN)C(=O)N[C@@H](CCCCN)C(=O)N[C@@H](CCCNC(=N)N)C(=O)N[C@@H](CCCNC(=N)N)C(=O)N[C@@H](CCC(N)=O)C(=O)N[C@@H](CCCNC(=N)N)C(=O)N[C@@H](CCCNC(=N)N)C(=O)N[C@@H](CCCNC(=N)N)C(=O)NCC(N)=O)ccc21 [TMR-TAT]
endocytic uptake by cells (HeLa cells [1]): punctate intracellular distribution | penetration into RBCs (red blood cells (RBCs) [2]; 10 µM in PBS for 1 hour, washed with cold PBS, confocal fluorescence): does not penetrate RBCs to a large extent | penetration into RBCs (red blood cells (RBCs) [2]; 1 to 5 µM): do not penetrate RBCs | lysis of RBCs when light exposure is increased (red blood cells (RBCs) [3]; 3 µM, 560 nm): more than 90% | lysis of RBCs in the absence of irradiation (red blood cells (RBCs) [3]; RBCs 0.25% in PBS, 1 to 5 µM, no 560 nm light): No lysis | photohemolysis (lytic effect on RBCs upon light exposure) (red blood cells (RBCs) [3]; RBCs 0.25% in PBS, irradiation at 560 nm): started lysing immediately upon excitation with light | photohemolysis after removal of oxygen (red blood cells (RBCs) [3]; incubation media degassed with nitrogen): greatly reduced | cell destruction after irradiation at 430 nm (HeLa cells [4]; HeLa incubated with TMR-TAT, 430 nm (not absorbed by TMR), radiant exposure approx. 40 J/cm^2): not destroyed | cell death on exposure to light of wavelengths not absorbed by TMR (HeLa cells [4]; HeLa, e.g. 436 or 470 nm): no cell death | photo-induced activities (morphological changes, SYTOX Blue staining) (COLO 316 cells): only observable in the irradiated area; also recorded: could be reproduced
